pIC50: −log10 of the molar value. Where two headings read alike, the source gives them in different places.
Molecular target: T1, P2X7 receptor (Homo sapiens, UniProt Q99572)
T1 construct: host or cells: THP-1 cells differentiated with LPS and IFN-γ
T1 sequence (Q99572 1-595): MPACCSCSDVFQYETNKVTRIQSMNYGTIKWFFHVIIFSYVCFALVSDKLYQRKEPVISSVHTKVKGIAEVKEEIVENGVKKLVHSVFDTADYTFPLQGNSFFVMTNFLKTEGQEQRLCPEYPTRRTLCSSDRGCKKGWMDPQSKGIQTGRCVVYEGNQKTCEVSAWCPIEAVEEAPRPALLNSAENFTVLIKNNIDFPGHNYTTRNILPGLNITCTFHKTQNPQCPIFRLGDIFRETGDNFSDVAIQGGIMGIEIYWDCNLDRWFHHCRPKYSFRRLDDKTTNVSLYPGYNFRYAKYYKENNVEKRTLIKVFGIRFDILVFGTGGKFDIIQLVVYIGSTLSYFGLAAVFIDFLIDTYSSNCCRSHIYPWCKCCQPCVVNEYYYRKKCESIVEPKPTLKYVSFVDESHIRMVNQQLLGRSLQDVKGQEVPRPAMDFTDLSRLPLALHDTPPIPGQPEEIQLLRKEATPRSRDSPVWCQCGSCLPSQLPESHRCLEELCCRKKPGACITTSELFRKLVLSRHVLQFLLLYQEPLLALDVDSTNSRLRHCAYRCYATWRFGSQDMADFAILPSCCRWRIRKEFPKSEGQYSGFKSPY
Assay: IL-1β release assay in differentiated THP-1 cells stimulated with BzATP (Example 9)
Format: cell-based
Conditions: BzATP 250 uM; for inhibition at 0.3 µM / inhibition at 0.1 µM: differentiated THP-1 cells, read-out: IL-1β % Inhib. @ 0.3 or 0.1 uM; for pIC50: THP-1 cells, IL-1β by ELISA
How it was run: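 THP-1 cells differentiated 16 h with 100 ng/mL LPS and 100 ng/mL IFN-γ, primed 2 h with fresh LPS, pretreated 30 min with compound, then stimulated 45 min with 250 uM BzATP (final). Supernatant IL-1β measured by ELISA; background-adjusted percent inhibition fitted to a four-parameter logistic for IC50.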

SMILES: Cc1ccc(CC(=O)Nc2cccc3c(=O)n(CC4(O)CCCCC4)ccc23)cc1 [Compound 35]
- inhibition at 0.3 µM (0.3 μM compound (symbols +)): 26 to 50%

SMILES: Cc1ccc(C)c(C(=O)Nc2cccc3c(=O)n(CC(C)(C)O)ccc23)c1 [Compound 202]
- inhibition at 0.1 µM (0.1 μM compound, "*" symbols): 0 to 25%

SMILES: COc1ccc(OC)c(CC(=O)Nc2cccc3c(=O)n(CCO)ccc23)c1 [Compound 77]
- inhibition at 0.3 µM (0.3 μM compound (symbols +)): 0 to 25%

SMILES: O=C(Cc1ccccc1F)Nc1cccc2c(=O)n(CC3(O)CCCCC3)ccc12 [Compound 28]
- inhibition at 0.3 µM (0.3 μM compound (symbols +)): 0 to 25%

SMILES: C[C@@H](CO)n1ccc2c(NC(=O)Cc3ccc(C(F)(F)F)c(F)c3)cccc2c1=O [Compound 336]
- inhibition at 0.3 µM (0.3 μM compound, "+" symbols): > 76%

SMILES: C[C@H](C(=O)Nc1cccc2c(=O)n([C@H](C)CO)ccc12)c1ccc(Cl)c(Cl)c1 [Compound 321]
- inhibition at 0.3 µM (0.3 μM compound, "+" symbols): > 76%

SMILES: CC(=O)NCCn1ccc2c(NC(=O)Cc3ccc(C(F)(F)F)c(F)c3)cccc2c1=O [Compound 390]
- inhibition at 0.3 µM (0.3 μM compound, "+" symbols): 0 to 25%
- pIC50: < 6.00

SMILES: COc1ccc(CC(=O)Nc2cccc3c(=O)n(CC4(O)CCCCC4)ccc23)cc1OC [Compound 31]
- inhibition at 0.3 µM (0.3 μM compound (symbols +)): 0 to 25%

SMILES: C[C@H](C(N)=O)n1ccc2c(NC(=O)Cc3c(F)cccc3F)cccc2c1=O [Compound 292]
- inhibition at 0.3 µM (0.3 μM compound, "+" symbols): 0 to 25%

SMILES: CC(=O)NCCn1ccc2c(NC(=O)Cc3ccc(F)c(F)c3)cccc2c1=O [Compound 392]
- inhibition at 0.3 µM (0.3 μM compound, "+" symbols): > 76%
- pIC50: 9.13

SMILES: CC(C)C(C(=O)Nc1cccc2c(=O)n(CCO)ccc12)c1ccc(Cl)cc1 (centres unmarked) [Compound 78]
- inhibition at 0.3 µM (0.3 μM compound (symbols +)): 0 to 25%

SMILES: C[C@H](C(N)=O)n1ccc2c(NC(=O)Cc3ccc(F)cc3F)cccc2c1=O [Compound 293]
- inhibition at 0.3 µM (0.3 μM compound, "+" symbols): > 76%

SMILES: CC(C(=O)Nc1cccc2c(=O)n(C(C)CO)ccc12)c1ccccc1 (centres unmarked) [Compound 103]
- inhibition at 0.1 µM (0.1 μM compound (symbols *)): 0 to 25%

SMILES: Cc1cccc(CC(=O)Nc2cccc3c(=O)n(CC(C)O)ccc23)c1 (centres unmarked) [Compound 159]
- inhibition at 0.1 µM (0.1 μM compound (symbols *)): 0 to 25%

SMILES: Cc1ccc(CC(=O)Nc2cccc3c(=O)n(CC(C)(C)O)ccc23)cc1 [Compound 216]
- inhibition at 0.1 µM (0.1 μM compound, "*" symbols): 0 to 25%

SMILES: O=C(Nc1cccc2c(=O)n(CC3(O)CCCCC3)ccc12)c1ccc(-c2ccccc2)cc1 [Compound 22]
- inhibition at 0.1 µM (0.1 μM compound (symbols *)): 0 to 25%

SMILES: Cc1ccc(C(=O)Nc2cccc3c(=O)n(C(C)CO)ccc23)cc1Cl (centres unmarked) [Compound 115]
- inhibition at 0.1 µM (0.1 μM compound (symbols *)): 0 to 25%

SMILES: C[C@H](C(N)=O)n1ccc2c(NC(=O)Cc3ccc(Cl)cc3Cl)cccc2c1=O [Compound 314]
- inhibition at 0.3 µM (0.3 μM compound, "+" symbols): > 76%

SMILES: Cc1cccc(C(=O)Nc2cccc3c(=O)n(CC(C)O)ccc23)c1Cl (centres unmarked) [Compound 182]
- inhibition at 0.1 µM (0.1 μM compound (symbols *)): 0 to 25%

SMILES: CCOc1ccc(CC(=O)Nc2cccc3c(=O)n(CC(C)(C)O)ccc23)cc1 [Compound 215]
- inhibition at 0.1 µM (0.1 μM compound, "*" symbols): 26 to 50%

SMILES: CCOc1ccc(CC(=O)Nc2cccc3c(=O)n(CC(C)O)ccc23)cc1 (centres unmarked) [Compound 161]
- inhibition at 0.1 µM (0.1 μM compound (symbols *)): 0 to 25%

SMILES: C[C@H](C(N)=O)n1ccc2c(NC(=O)Cc3cccc(OC(F)(F)F)c3)cccc2c1=O [Compound 313]
- inhibition at 0.3 µM (0.3 μM compound, "+" symbols): 0 to 25%

SMILES: C[C@H](C(=O)Nc1c(Cl)ccc2c(=O)n([C@H](C)C(N)=O)ccc12)c1ccc(Cl)cc1 [Compound 340]
- inhibition at 0.3 µM (0.3 μM compound, "+" symbols): > 76%

SMILES: Cc1ccc(CC(=O)Nc2cccc3c(=O)n([C@H](C)C(N)=O)ccc23)cc1F [Compound 302]
- inhibition at 0.3 µM (0.3 μM compound, "+" symbols): > 76%

SMILES: CC(C)(CO)n1ccc2c(NC(=O)Cc3ccc(C(F)(F)F)cc3C(F)(F)F)cccc2c1=O [Compound 366]
- inhibition at 0.3 µM (0.3 μM compound, "+" symbols): 0 to 25%

SMILES: CC(C(=O)Nc1cccc2c(=O)n(C[C@H]3CCCN3)ccc12)c1ccc(Cl)cc1 (some centres unmarked) [Compound 242]
- inhibition at 0.3 µM (0.3 μM compound, "+" symbols): 26 to 50%
- pIC50: 6.45

SMILES: CC(C(=O)Nc1cccc2c(=O)n([C@H](C)C(N)=O)ccc12)c1ccc(F)cc1 (some centres unmarked) [Compound 299]
- inhibition at 0.3 µM (0.3 μM compound, "+" symbols): > 76%

SMILES: CC(CO)n1ccc2c(NC(=O)c3ccc(-c4ccccc4)cc3)cccc2c1=O (centres unmarked) [Compound 102]
- inhibition at 0.1 µM (0.1 μM compound (symbols *)): 0 to 25%

SMILES: C[C@H](C(N)=O)n1ccc2c(NC(=O)Cc3ccc(F)cc3C(F)(F)F)cccc2c1=O [Compound 295]
- inhibition at 0.3 µM (0.3 μM compound, "+" symbols): 51 to 75%

SMILES: CC(C)(O)Cn1ccc2c(NC(=O)Cc3csc4ccccc34)cccc2c1=O [Compound 224]
- inhibition at 0.1 µM (0.1 μM compound, "*" symbols): 26 to 50%

SMILES: COc1ccc(OC)c(CC(=O)Nc2cccc3c(=O)n(CC(C)(C)O)ccc23)c1 [Compound 210]
- inhibition at 0.1 µM (0.1 μM compound, "*" symbols): 0 to 25%

SMILES: Cc1c(Cl)cccc1C(=O)Nc1cccc2c(=O)n(CC(C)O)ccc12 (centres unmarked) [Compound 172]
- inhibition at 0.1 µM (0.1 μM compound (symbols *)): 51 to 75%

SMILES: Cc1ccc(C)c(CC(=O)Nc2cccc3c(=O)n(CC(C)(C)O)ccc23)c1 [Compound 191]
- inhibition at 0.1 µM (0.1 μM compound (symbols *)): 0 to 25%

SMILES: Cc1ccccc1C(=O)Nc1cccc2c(=O)n(CC(C)(C)O)ccc12 [Compound 200]
- inhibition at 0.1 µM (0.1 μM compound, "*" symbols): 0 to 25%

SMILES: COc1ccccc1CC(=O)Nc1cccc2c(=O)n(C(C)CO)ccc12 (centres unmarked) [Compound 107]
- inhibition at 0.1 µM (0.1 μM compound (symbols *)): 0 to 25%

SMILES: C[C@H](C(N)=O)n1ccc2c(NC(=O)Cc3cccc(C(F)(F)F)c3)cccc2c1=O [Compound 297]
- inhibition at 0.3 µM (0.3 μM compound, "+" symbols): > 76%

SMILES: C[C@H](C(N)=O)n1ccc2c(NC(=O)Cc3ccc(-c4ccccc4)cc3)cccc2c1=O [Compound 289]
- inhibition at 0.3 µM (0.3 μM compound, "+" symbols): > 76%

SMILES: C[C@@H](C(N)=O)n1ccc2c(NC(=O)Cc3ccc(F)c(C(F)(F)F)c3)cccc2c1=O [Compound 348]
- inhibition at 0.3 µM (0.3 μM compound, "+" symbols): > 76%

SMILES: C[C@@H](C(N)=O)n1ccc2c(NC(=O)Cc3ccc(F)c(Cl)c3)cccc2c1=O [Compound 346]
- inhibition at 0.3 µM (0.3 μM compound, "+" symbols): > 76%

SMILES: CC(CO)n1ccc2c(NC(=O)c3cc(Cl)ccc3Cl)cccc2c1=O (centres unmarked) [Compound 97]
- inhibition at 0.1 µM (0.1 μM compound (symbols *)): 0 to 25%

SMILES: C[C@H](C(N)=O)n1ccc2c(NC(=O)Cc3ccc(OC(F)(F)F)cc3)cccc2c1=O [Compound 311]
- inhibition at 0.3 µM (0.3 μM compound, "+" symbols): 51 to 75%
- pIC50: 6.82

SMILES: CC(O)Cn1ccc2c(NC(=O)Cc3ccccc3Cl)cccc2c1=O (centres unmarked) [Compound 154]
- inhibition at 0.1 µM (0.1 μM compound (symbols *)): 0 to 25%

SMILES: CC(C(=O)Nc1cccc2c(=O)n(C[C@@H]3CCCN3)ccc12)c1ccc(Cl)cc1 (some centres unmarked) [Compound 246]
- inhibition at 0.3 µM (0.3 μM compound, "+" symbols): 51 to 75%

SMILES: Cc1c(Cl)cccc1C(=O)Nc1cccc2c(=O)n(C(C)CO)ccc12 (centres unmarked) [Compound 118]
- inhibition at 0.1 µM (0.1 μM compound (symbols *)): 26 to 50%

SMILES: CC(C)(O)Cn1ccc2c(NC(=O)c3cc(Cl)cc(Cl)c3)cccc2c1=O [Compound 203]
- inhibition at 0.1 µM (0.1 μM compound, "*" symbols): 0 to 25%

SMILES: Cc1ccc(C)c(C(=O)Nc2cccc3c(=O)n(CC(C)O)ccc23)c1 (centres unmarked) [Compound 142]
- inhibition at 0.1 µM (0.1 μM compound (symbols *)): 0 to 25%

SMILES: C[C@H](C(N)=O)n1ccc2c(NC(=O)C(C)(C)c3ccc(Cl)cc3)cccc2c1=O [Compound 264]
- inhibition at 0.3 µM (0.3 μM compound, "+" symbols): 26 to 50%
- pIC50: 6.35

SMILES: C[C@H](C(N)=O)n1ccc2c(NC(=O)Cc3cc(F)c(F)cc3F)cccc2c1=O [Compound 305]
- inhibition at 0.3 µM (0.3 μM compound, "+" symbols): > 76%

SMILES: C[C@@H](C(N)=O)n1ccc2c(NC(=O)Cc3ccc(C(F)(F)F)c(F)c3)cccc2c1=O [Compound 347]
- inhibition at 0.3 µM (0.3 μM compound, "+" symbols): > 76%

SMILES: CC(O)Cn1ccc2c(NC(=O)c3ccc4ccccc4c3)cccc2c1=O (centres unmarked) [Compound 152]
- inhibition at 0.1 µM (0.1 μM compound (symbols *)): 0 to 25%

SMILES: COc1ccc(C(=O)Nc2cccc3c(=O)n(CC(C)O)ccc23)c(C)c1 (centres unmarked) [Compound 125]
- inhibition at 0.1 µM (0.1 μM compound (symbols *)): 0 to 25%

SMILES: COc1ccc(C(=O)Nc2cccc3c(=O)n(C(C)CO)ccc23)cc1C (centres unmarked) [Compound 123]
- inhibition at 0.1 µM (0.1 μM compound (symbols *)): 0 to 25%

SMILES: C[C@H](C(=O)Nc1cccc2c(=O)n([C@@H](C(N)=O)c3ccccc3)ccc12)c1ccc(Cl)c(Cl)c1 [Compound 278, (S)—N-[2-((R)-Carbamoyl-phenyl-methyl)-1-oxo-1,2-dihydro-isoquinolin-5-yl]-2-(3,4-dichloro-phenyl)-propionamide]
- inhibition at 0.3 µM (0.3 μM compound, "+" symbols): > 76%

SMILES: CCOc1ccc(C(=O)Nc2cccc3c(=O)n(CC(C)(C)O)ccc23)c(O)c1 [Compound 185]
- inhibition at 0.1 µM (0.1 μM compound (symbols *)): 0 to 25%

— patent US20110092476A1, “Bicycloheteroaryl compounds as P2X7 modulators and uses thereof” (Renovis, Inc., priority 2006, published 2011)
